Source: article PMC3242434 (Bioorganic & medicinal chemistry letters, 2011)

Experiments:
[1] = test system: MCF7 breast cancer cell-line; assay: Anti-proliferative activity against MCF7 breast cancer cell-line; type: cell-based; details: Homo sapiens, MCF7, read-out: IC50 against MCF-7
Hsp90 = assay: Western blot analyses of Hsp90 client protein degradation in MCF-7 cells; type: cell-based

| Structure (SMILES) | IC50 [1] [µM] | Hsp90 client protein degradation (Hsp90) | Hsp90 induction (heat shock response) (Hsp90) |
| --- | --- | --- | --- |
| COc1ccc(Cc2ccc3cc(NC(=O)c4ccc(O)c(CC=C(C)C)c4)c(=O)oc3c2C)cc1OC [Compound 48] | ~13 |  |  |
| COc1ccc(Oc2ccc3cc(NC(=O)c4ccc(O)c(CC=C(C)C)c4)c(=O)oc3c2C)cc1 [Compound 14] |  | client protein degradation was observed | no Hsp90 induction was seen |
| COc1ccc(Cc2ccc3cc(NC(=O)c4ccc(OC(C)=O)c(CC=C(C)C)c4)c(=O)oc3c2C)cc1 [Compound 43] |  | client protein degradation was observed | no Hsp90 induction was seen |
